Source: the NIST ThermoML archive (doi:10.1021/je900407u)

Experiment: isobaric coefficient of expansion
Conditions: Liquid, Micro DSCII

CCCCn1cc[n+](C)c1.[F][Sb-]([F])([F])([F])([F])[F] [1-butyl-3-methylimidazolium hexafluoroantimonate]
isobaric coefficient of expansion
Conditions	5000 kPa	10000 kPa	15000 kPa	20000 kPa	25000 kPa	30000 kPa	35000 kPa	40000 kPa	45000 kPa	50000 kPa
278.15 K	0.000636 1/K	0.000627 1/K	0.000619 1/K	0.000614 1/K	0.000607 1/K	0.0006 1/K	0.000593 1/K	0.000589 1/K	0.000582 1/K	0.000575 1/K
288.15 K	0.00063 1/K	0.000621 1/K	0.000614 1/K	0.000609 1/K	0.000603 1/K	0.000596 1/K	0.000589 1/K	0.000582 1/K	0.000575 1/K	0.000573 1/K
298.15 K	0.000624 1/K	0.000619 1/K	0.000609 1/K	0.000602 1/K	0.000597 1/K	0.000588 1/K	0.000581 1/K	0.000576 1/K	0.000571 1/K	0.000566 1/K
308.15 K	0.00062 1/K	0.00061 1/K	0.000604 1/K	0.000596 1/K	0.000589 1/K	0.000583 1/K	0.000576 1/K	0.000571 1/K	0.000563 1/K	0.000558 1/K
318.15 K	0.000612 1/K	0.000609 1/K	0.000599 1/K	0.000591 1/K	0.000584 1/K	0.000577 1/K	0.00057 1/K	0.000564 1/K	0.000557 1/K	0.00055 1/K
328.15 K	0.000609 1/K	0.000601 1/K	0.000595 1/K	0.000589 1/K	0.00058 1/K	0.000573 1/K	0.000566 1/K	0.000559 1/K	0.000553 1/K	0.000547 1/K
338.15 K	0.000607 1/K	0.000599 1/K	0.000593 1/K	0.000585 1/K	0.000575 1/K	0.000569 1/K	0.000563 1/K	0.000556 1/K	0.000549 1/K	0.000545 1/K
348.15 K	0.000602 1/K	0.000597 1/K	0.000588 1/K	0.000579 1/K	0.000574 1/K	0.000567 1/K	0.000562 1/K	0.000555 1/K	0.000549 1/K	0.000542 1/K

CCCCn1cc[n+](C)c1.F[B-](F)(F)F [1-butyl-3-methylimidazolium tetrafluoroborate]
isobaric coefficient of expansion
Conditions	5000 kPa	10000 kPa	15000 kPa	20000 kPa	25000 kPa	30000 kPa	35000 kPa	40000 kPa	45000 kPa	50000 kPa
278.15 K	0.000605 1/K	0.0006 1/K	0.000592 1/K	0.000586 1/K	0.000581 1/K	0.000575 1/K	0.000571 1/K	0.000564 1/K	0.000559 1/K	0.000553 1/K
288.15 K	0.000598 1/K	0.000592 1/K	0.000587 1/K	0.000582 1/K	0.000577 1/K	0.00057 1/K	0.000566 1/K	0.000557 1/K	0.000555 1/K	0.000553 1/K
298.15 K	0.000594 1/K	0.00059 1/K	0.000581 1/K	0.000575 1/K	0.000571 1/K	0.000563 1/K	0.000558 1/K	0.000552 1/K	0.000547 1/K	0.000545 1/K
308.15 K	0.000588 1/K	0.00058 1/K	0.000575 1/K	0.000569 1/K	0.000561 1/K	0.000557 1/K	0.00055 1/K	0.000547 1/K	0.000542 1/K	0.000535 1/K
318.15 K	0.00058 1/K	0.000577 1/K	0.00057 1/K	0.000561 1/K	0.000558 1/K	0.000552 1/K	0.000547 1/K	0.000543 1/K	0.000536 1/K	0.000532 1/K
328.15 K	0.000576 1/K	0.00057 1/K	0.000563 1/K	0.000559 1/K	0.000551 1/K	0.000544 1/K	0.000541 1/K	0.000534 1/K	0.000528 1/K	0.000523 1/K
338.15 K	0.000571 1/K	0.000566 1/K	0.000561 1/K	0.000552 1/K	0.000547 1/K	0.000543 1/K	0.000536 1/K	0.000531 1/K	0.000526 1/K	0.000522 1/K
348.15 K	0.000569 1/K	0.000566 1/K	0.000557 1/K	0.000552 1/K	0.000545 1/K	0.000539 1/K	0.000535 1/K	0.000528 1/K	0.000524 1/K	0.00052 1/K
